Reference: patent publication US20250136601A1 (priority 2022, published 2025)
Values joined by “and” are separate entries in the source; they are usually repeats but may differ in a detail not shown here. Identical values can stand only once. Like-named read-outs stand apart in the source and are kept apart here.

Experiments:
dopamine D2 receptor = dopamine D2 receptor (Homo sapiens (Human), UniProt P14416); test: radioligand competitive binding assay, [3H]-Methylspiperone, 293T membranes; settings: affinity for the dopamine D2 receptor
dopamine D2 receptor, sequence (P14416 whole entry, species assumed): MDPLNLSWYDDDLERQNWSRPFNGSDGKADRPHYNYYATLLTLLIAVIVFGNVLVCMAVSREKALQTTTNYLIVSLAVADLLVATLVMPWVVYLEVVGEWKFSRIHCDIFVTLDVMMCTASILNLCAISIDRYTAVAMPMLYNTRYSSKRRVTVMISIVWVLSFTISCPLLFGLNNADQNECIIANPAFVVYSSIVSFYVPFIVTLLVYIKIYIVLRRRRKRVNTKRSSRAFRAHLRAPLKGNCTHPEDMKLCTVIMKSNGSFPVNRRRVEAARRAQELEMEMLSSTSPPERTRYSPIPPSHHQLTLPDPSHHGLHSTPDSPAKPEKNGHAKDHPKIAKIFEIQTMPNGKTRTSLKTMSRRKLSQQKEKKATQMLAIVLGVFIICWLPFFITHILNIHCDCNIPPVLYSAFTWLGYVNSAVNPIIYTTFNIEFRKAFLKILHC
Description: Method: The affinity of the compounds of the present disclosure for the dopamine D2 receptor was determined using a radioligand competitive binding assay as follows. In the first step, a cell membrane component containing dopamine D2 receptor was prepared. […] 48 hours post-transfection, the 10 cm culture dish was taken out from the cell incubator and the cultured cells had expressed the dopamine D2 receptor. The culture medium was aspirated using a vacuum pump, and 3 mL of lysis buffer was added to each culture dish. The cells were then placed in a cold room at 4° C. for 10 minutes. After the cells were detached, they were transferred to a 15 mL centrifuge tube and centrifuged at 1500 rpm for 5 minutes at 4° C., and the supernatant was discarded. The cell pellet was transferred to a tissue homogenizer, and 3 mL of lysis buffer was added. Sufficient grinding was applied to break the cells. The cell suspension was then equally aliquoted into several Eppendorf tubes and centrifuged at 12000 rpm for 5 minutes at 4° C., and the supernatant was discarded. The resulting precipitate was the cell membrane component containing the dopamine D2 receptor. […] The machine readout value reflected the amount of [3H]-Methylspiperone bound on the membrane, and after further data processing, the affinity Ki values of different compounds for the dopamine D2 receptor were obtained.

5-HT2A receptor [1] = target: T1, 5-HT2A receptor (Homo sapiens (Human), UniProt P28223); test: radioligand competitive binding assay, [3H]-LSD, 293T membranes
T1 sequence (P28223 whole entry): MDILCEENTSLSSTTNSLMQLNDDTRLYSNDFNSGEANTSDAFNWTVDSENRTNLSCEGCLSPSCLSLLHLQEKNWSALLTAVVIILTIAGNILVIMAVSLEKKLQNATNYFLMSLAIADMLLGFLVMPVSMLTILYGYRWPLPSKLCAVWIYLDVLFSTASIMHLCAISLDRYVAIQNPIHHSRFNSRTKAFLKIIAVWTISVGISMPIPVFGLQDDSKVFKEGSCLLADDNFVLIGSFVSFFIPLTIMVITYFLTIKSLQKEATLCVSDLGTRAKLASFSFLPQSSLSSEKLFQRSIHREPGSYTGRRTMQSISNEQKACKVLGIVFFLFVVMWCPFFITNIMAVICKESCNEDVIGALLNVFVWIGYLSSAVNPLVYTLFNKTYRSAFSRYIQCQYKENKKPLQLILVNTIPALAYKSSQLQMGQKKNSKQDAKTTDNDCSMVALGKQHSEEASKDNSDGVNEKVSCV

[2] = tested on: head-twitch response in mice; format: in vivo, C57BL/6J mice; settings: intraperitoneal, at all doses tested, first 30 minutes
From the text: Method: The head-twitch response in mice was detected via oscillatory signals to characterize hallucinogenic effects. Mice (strain C57BL/6J, purchased from Shanghai Lingchang Biotech Co., Ltd.) were anesthetized with 2% isoflurane. A small portion of the scalp was removed from the center of the dorsal cranium. A custom-made small neodymium magnet (4 mm×4 mm×2 mm) was attached to the center of the dorsal cranium using dental resin. The magnet N-S poles were kept parallel to the dorsoventral aspect of the implant. The mice were allowed to recover for 1 week before testing. To record precise head movements, the mice were placed in a glass beaker with a diameter of 12 cm, surrounded by 150 turns of #30 enameled copper wire. The output signal from the coil was recorded using a PowerLab/4SP instrument installed with LabChart V8.1.16 software. Coil voltage was amplified, low-pass filtered at 10 kHz to remove radio frequency interference, and sampled at 40 kHz. For the detection of head-twitch response in mice, LabChart data were processed with a digital band-pass filter at 40 to 200 Hz. The head-twitch response in mice was identified by searching for sinusoidal wavelets that met the following criteria: 1) containing more than two bipolar peaks; 2) amplitude exceeding background noise level; 3) duration less than 120 milliseconds. 1 hour prior to the test, the mice were transferred to the test room for acclimatization. Subsequently, the mice were placed in the beaker for 30 minutes, and baseline head-twitch response values were recorded. Immediately after baseline recording, the mice were injected intraperitoneally with the test compound, and head-twitch response values were recorded for 1 to 2 hours post-dose, depending on the compound used. Statistical values were taken from the first 30 minutes.

5-HT2A receptor [3] = target: T1, 5-HT2A receptor; test: cell-based; format: cell-based; settings: for Emax: HEK-293T, read-out: β-arrestin2 signaling agonistic activity (percentage in parentheses); for Gq signaling agonistic activity (percentage in parentheses): value in parentheses
Description: On the second day, the confluent cells from a 6 cm culture dish were digested and reseeded into a 96-well plate at a volume of 100 μL of culture medium per well. On the third day, the drugs were added for testing. The 96-well plate was taken out from the cell incubator to decant the culture medium. 40 μL of the substrate coelenterazine 400a (final concentration 5 μM) was added to each well, and then 20 μL of different drugs were added sequentially from left to right, ensuring that the final concentration of the drug decreased gradually from bottom to top, with two replicates per treatment. Finally, the prepared samples were loaded on a plate reader for signal quantification. The readout values reflected the recruitment of β-arrestin2 to the membrane or the dissociation of G protein trimer. The former indicated the degree of activation of the downstream β-arrestin2 signaling pathway mediated by the 5-HT2A receptor, and the latter indicated the degree of activation of the downstream G protein signaling pathway mediated by the 5-HT2A receptor.

in vivo = settings: male, C57, mouse, ip, 5 mg/kg; for half-life: 5 mg/kg IP, mice
Description: (§1) The concentration of the compound in mouse plasma was determined using LC-MS/MS, and the relevant pharmacokinetic parameters were calculated to investigate the pharmacokinetic characteristics of the compound in mice.
(§2) Experimental design: 60 male C57 mice (purchased from Suzhou JOINN Laboratory Animal Co., Ltd.) were randomly divided into groups based on weight, with 3 mice per group. The mice were fasted with water ad libitum for 12 to 14 hours one day before test-article administration and fed 4 hours after the administration. The route of administration was intraperitoneal (IP), with a dosing concentration of 1 mg/mL, and a solvent formulation of 10% DMSO+90% saline.
(§3) Sample collection: 0.1 mL of blood was collected from the orbit under isoflurane anesthesia before and after test-article administration, transferred to EDTA K2 tubes, and placed on an ice bath. The samples were centrifuged at 5000 rpm for 10 minutes at 4° C., and the plasma was collected. […] Prior to analysis, all plasma samples were stored at −80° C.
(§4) Data processing: Drug concentrations in plasma and brain tissues were measured using LC-MS (API4000QTRAP triple quadrupole tandem mass spectrometer, equipped with an electrospray ionization source (ESI)). The data collection and control system software utilized was Analyst 1.5.1 (Applied Biosystems). The sample peak integration in the spectrum was conducted automatically; the ratio of the sample peak area to the internal standard peak area was used as an indicator to perform regression with the concentration of the sample. Regression method: Linear regression with a weighting factor of 1/X^2. Pharmacokinetic parameters were analyzed using a non-compartmental model in WinNonlin Professional v6.3 (Pharsight, USA). Cmax is the measured maximum plasma concentration, the area under the plasma concentration-time curve (AUC(0→0)) was calculated by the trapezoidal method, and Tmax is the time to reach peak plasma concentration after administration. Experimental data are presented as “Mean±Standard Deviation” (Mean±SD, n≥3) or “Mean” (n=2).

[4] = for AUMC0-inf / AUMC0-t / Kel: 5 mg/kg IP, mice
Description: as §1, §2, §3, §4

[5] = tested on: corticosterone-exposed mice; test: tail suspension test after 21 days of corticosterone exposure; format: in vivo, Male C57BL/6 mice
Description: Antidepressant efficacy test method: Male C57BL/6 mice (8 weeks old, purchased from Shanghai Lingchang Biotech Co., Ltd.) were administered a solution of corticosterone in their drinking water at a concentration of 25 μg/mL using drinking water bottles for 21 days. Mice were maintained on a 12-hour light cycle. Corticosterone-containing drinking water was refreshed every other day for the first two weeks, and gradually replaced with corticosterone-free drinking water every two days for the last week. […] TST procedure: mice in the control group and the administration group were suspended by their tails with tape for 6 minutes, and their behavior was recorded by a video camera. The immobility time during the last 4 minutes was manually timed and assessed by an observer who was unaware of the treatment conditions.

[6] = affinity for the 5-HT2A receptor, [3H]-LSD

With `COc1ccccc1CCN1CC[C@H]2[C@@H](C1)c1cccc3c1N2CCN3C` [Compound I-3] the Ki (dopamine D2 receptor) was 1550 nM, the Ki (5-HT2A receptor [1]) was under 100 nM and the “hallucinogenic effects (head-twitch response)” value [2] was “did not induce hallucinogenic effects”. For the same molecule, the Emax (5-HT2A receptor [3]) was 39% and the “Gq signaling agonistic activity (percentage in parentheses)” value (5-HT2A receptor [3]) was 20.2%.

Work on `COc1ccccc1CCN1CC[C@H]2[C@@H](C1)c1cccc3c1N2CCCN3C` (single isomer, unassigned) [Compound I-12] yielded a Ki (5-HT2A receptor [1]) of under 100 nM and a Ki (5-HT2A receptor [1]; [6]) of 190 nM.

`COc1ccc(OC)c(CCN2CC[C@H]3[C@@H](C2)c2cccc4c2N3CCN4C)c1` [Compound I-8, (6bR,10aS)-8-(2,5-dimethoxy)-3-methyl-2,3,6b,7,8,9,10,10a-octahydro-1H-pyrido[3′,4′:4,5]pyrrolo[1,2,3-de]quinoxaline] showed a Ki (5-HT2A receptor [1]; [6]) of 3060 nM.

Work on `CN1CCN2c3c(cccc31)[C@@H]1CN(CCCc3ccccc3O)CC[C@@H]12` [Compound I-11, 2-(3-((6bR,10aS)-3-methyl-2,3,6b,9,10,10a-hexahydro-1H-pyrido[3′,4′:4,5]pyrrolo[1,2,3-de]quinoxalin-8(7H)-yl)propyl)phenol] yielded a Ki (5-HT2A receptor [1]) of under 100 nM, a Ki (5-HT2A receptor [1]; [6]) of 89 nM and an Emax (5-HT2A receptor [3]) of 36.8%. The “Gq signaling agonistic activity (percentage in parentheses)” value (5-HT2A receptor [3]) was 9.7%.

`COc1ccccc1CCCN1CC[C@@H]2[C@H](C1)c1cccc3c1N2CCCS3` [Compound I-27, (8aR,12aS)-11-(3-(2-methoxyphenyl)propyl)-6,7,8a,9,10,11,12,12a-octahydro-5H-pyrido[4,3-b][1,4]thiazepino[2,3,4-hi]indole] gave a Ki (5-HT2A receptor [1]) of under 100 nM, a Ki (5-HT2A receptor [1]; [6]) of 8 nM and an EC50 (5-HT2A receptor [3]) of 878 nM. For the same molecule, the Emax (5-HT2A receptor [3]) was 35.7% and the “pathway selectivity: β-arrestin2 recruitment versus G protein signaling” value (5-HT2A receptor [3]; without activating the G protein signaling pathway) was “selectively activate the recruitment of β-arrestin2”.

`COc1ccccc1CCCN1CC[C@H]2[C@@H](C1)c1cccc3c1N2CCCS3` (single isomer, unassigned) [Compound I-26] showed a Ki (5-HT2A receptor [1]) of under 100 nM and a Ki (5-HT2A receptor [1]; [6]) of 93 nM.

Work on `COc1ccccc1CCCN1CC[C@H]2[C@@H](C1)c1cccc3c1N2CCC3` (single isomer, unassigned) [Compound I-18, 10-(3-(2-methoxyphenyl)propyl)-5,6,7a,8,9,10,11,11a-octahydro-4H-pyrido[3′,4′:4,5]pyrrolo[3,2,1-i]quinoline] yielded a Ki (5-HT2A receptor [1]) of under 100 nM.

Molecule `COc1ccccc1CN1CC[C@H]2[C@@H](C1)c1cccc3c1N2CCN3C` [Compound I-1] has an Emax (5-HT2A receptor [3]) of 60.2%, an EC50 (5-HT2A receptor [3]; first value of cell, NA = no agonistic activity, read-out: Gq signaling agonistic activity (potency)) of 120 nM and an EC50 (5-HT2A receptor [3]; first value of cell, NA = no agonistic activity, read-out: β-arrestin2 signaling agonistic activity (potency)) of 174 nM. For the same molecule, the “Gq signaling agonistic activity (percentage in parentheses)” value (5-HT2A receptor [3]) was 67.0%.

For `COc1ccccc1CCCN1CC[C@@H]2[C@H](C1)c1cccc3c1N2CCO3` (single isomer, unassigned) [Compound I-23], the AUC0-t (in vivo) was 537 ng·h/mL, the Cmax (in vivo) was 272 ng/mL and 1420 ng/g and the Tmax (in vivo) was 0.5 h. For the same molecule, the MRT (in vivo; MRT) was 1.47 h, the half-life (in vivo; T1/2, brain) was 1.1 h and the half-life (in vivo; T1/2, plasma) was 1.02 h. The “hallucinogenic effects (head-twitch response)” value [2] was “did not induce hallucinogenic effects”, the AUMC0-inf ([4]; brain) was 1698 h · h · ng · g^−1 and the AUMC0-t ([4]; brain) was 1645 h · h · ng · g^−1. The Kel ([4]; brain) was 0.630 h⁻¹, the MRT ([4]; male, C57, mouse, in vivo, ip, 5 mg/kg) was 0.932 h and the AUC0-t ([4]; mouse, in vivo, ip, 5 mg/kg) was 1816 ng·h/g. It also gave an AUMC0-inf ([4]; plasma) of 794 h · h · ng · mL^−1, an AUMC0-t ([4]; plasma) of 769 h · h · ng · mL^−1 and a Kel ([4]; plasma) of 0.678 h⁻¹. For the same molecule, the “antidepressant effect in the mouse tail suspension test” value (shortened to “antidepressant effect”) ([5]; 10 mg/kg single-injection group, after 7 days) was “remained significant”, the “antidepressant effect” value ([5]; 10 mg/kg single-injection group, after 14 days) was “remained significant” and the “antidepressant effect” value ([5]; one day after a single administration) was “significant antidepressant effect”.
